Like-named read-outs stand apart in the source and are kept apart here.
What was measured:
[1] = Stability experiment: retention rate of reduced coenzyme Q10 on storage; assay type: physicochemical; conditions: stored under shading or nitrogen at 18° C.
Description: Determining the proportion of reduced coenzyme Q10 in reduced coenzyme Q10 powder or crystals by the HPLC method. Determination conditions are as follows:
Instruments: Agilient 1210
Mobile phase: ethanol/methanol=4/3(V/V)
Detection wavelength: 210 nm
Sample 1 and Sample 2 and Sample 3 obtained by Example 1, Example 2, Example 3 are respectively stored under shading or nitrogen for two months at 18° C. The retention rate of reduced coenzyme Q10 is respectively determined within 1 month and 2 months.

[2] = Beagle feeding experiment: pharmacokinetic parameters and relative bioavailability; assay type: in vivo; conditions: gastric gavage 20 mg/kg, average
Description: Sample 1 and Sample 2 and Sample 3 obtained by Example 1, Example 2, Example 3 are used for beagle feeding experiment respectively, and the reduced coenzyme Q10 concentration in blood of feed beagle is determined, a basic pharmacokinetic parameters and relative bioavailability is calculated.
4 beagles, half male and half female, 9-12 kg weight, provided by Shanghai Institute of Medicine Center for experimental animals, laboratory animals use license: SYXK (Shanghai), 2010-0049. A cross double cycle test is made. Gastric gavage is respectively for Sample 1, 2, 3, to fill stomach in a dose of 20 mg/kg, a delivery volume of 2 ml/kg. Samples with a suspension of soybean oil mixture for medicine (filling water 20 ml after feeding), normally feeding and drinking before testing, feeding feed containing meat on morning of the same day of feeding the medicine, to fill the stomach after 30 min. Two cycle tests are interval for a week.
Calculate the Pharmacokinetic Parameters of Compounds by WinNonlin 5.3 Software.
Peak-reaching time Tmax and peak-reaching concentration Cmax use measured values. Drug concentration area under time curve AUC0-t value is calculated by the trapezoidal method, AUC0-∞ is calculated by the formula AUC0-∞=AUC0-t+Ct/ke. Ct is a concentration measured by the last time point, ke is an eliminate rate constant, with half logarithmic mapping method, calculation by eliminating the concentration of the phase; Plasma elimination half-life t1/2=0.693/ke. Relative bioavailability F=(AUC0-t, Sample 2 or 3/AUC0-t, Sample 1)×100%. The main pharmacokinetic parameters after Beagle lavage for 20 mg/kg sample.

[3] = both sexes, dog, blood, po, 20 mg/kg, suspension in soybean oil

| Structure (SMILES) | The retention rate of reduced coenzyme Q10 within 1 month [1] | The retention rate of reduced coenzyme Q10 within 2 months [1] | The retention rate of reduced coenzyme Q10 within 2 months ([1]; listed as reduced coenzyme Q10 powder obtained by the method) | AUC0-t ([2]; suspension in soybean oil) | AUC0-∞ ([2]; suspension in soybean oil) | Cmax ([2]; suspension in soybean oil) | MRT ([2]; suspension in soybean oil) | Tmax ([2]; suspension in soybean oil) | t1/2 ([2]; suspension in soybean oil) | The retention rate of reduced coenzyme Q10 within 2 months ([1]; listed as Samples 2) | bioavailability ([2]; both sexes, dog, blood, po, 20 mg/kg, F=(AUC0-t, Sample 2 or 3/AUC0-t, Sample 1)×100%) | AUC(0-inf) [2, 3] | half-life [2, 3] | AUC0-t ([2]; both sexes, dog, blood, po, 20 mg/kg, suspension in soybean oil, read-out: AUC0-t) | Cmax ([2]; both sexes, dog, blood, po, 20 mg/kg, suspension in soybean oil, read-out: Cmax) | MRT ([2]; both sexes, dog, blood, po, 20 mg/kg, suspension in soybean oil, read-out: MRT) | Tmax ([2]; both sexes, dog, blood, po, 20 mg/kg, suspension in soybean oil, read-out: Tmax) |
| --- | --- | --- | --- | --- | --- | --- | --- | --- | --- | --- | --- | --- | --- | --- | --- | --- | --- |
| COc1c(O)c(C)c(C/C=C(\C)CC/C=C(\C)CC/C=C(\C)CC/C=C(\C)CC/C=C(\C)CC/C=C(\C)CC/C=C(\C)CC/C=C(\C)CC/C=C(\C)CCC=C(C)C)c(O)c1OC [Sample 1, reduced coenzyme Q10] | 98.4% | 95.5% | 95.5% | 3640 ng·h/mL | 2865 ng·h/mL | 303 ng/mL | 10.9 h | 7.5 h | 6.11 h |  |  |  |  |  |  |  |  |
| COc1c(O)c(C)c(C/C=C(\C)CC/C=C(\C)CC/C=C(\C)CC/C=C(\C)CC/C=C(\C)CC/C=C(\C)CC/C=C(\C)CC/C=C(\C)CC/C=C(\C)CCC=C(C)C)c(O)c1OC [Sample 2, reduced coenzyme Q10] | 75.4% | 66.3% |  | 2359 ng·h/mL | 2405 ng·h/mL | 261 ng/mL | 7.77 h | 4.5 h | 3.94 h | 66.3% |  |  |  |  |  |  |  |
| COc1c(O)c(C)c(C/C=C(\C)CC/C=C(\C)CC/C=C(\C)CC/C=C(\C)CC/C=C(\C)CC/C=C(\C)CC/C=C(\C)CC/C=C(\C)CC/C=C(\C)CCC=C(C)C)c(O)c1OC [Sample 3, reduced coenzyme Q10] | 89.3% | 85.4% |  |  |  |  |  |  |  |  | 74.7% | 2660 ng·h/mL | 4.76 h | 2760 ng·h/mL | 287 ng/mL | 8.35 h | 6.3 h |

From patent US10028914B2, “Reduction type coenzyme Q10 powder, composition thereof, and preparation method thereof” (Zhejiang Medicine Co., Ltd. Xinchang Pharmaceutical Factory, priority 2013, dated 2018)
